Reference: the NIST ThermoML archive (doi:10.1016/j.jct.2018.08.036)
Numbers after ± are expanded uncertainties.

Tests used:
[1] = xn = mol fraction of the nth substance listed; conditions: 100 kPa, Liquid; for viscosity: Falling or rolling sphere viscometry; for speed of sound: Frequency=3 MHz, Single path-length method; for mass density: Vibrating tube method
[2] = refractive index (Na D-line) (dimensionless); xn = mol fraction of the nth substance listed; conditions: 100 kPa, Liquid, Standard Abbe refractometry

CCC(C)c1ccccc1 (centres undefined) [(1-methylpropyl)benzene] + CCCCCCCCCCCCCCCC
Conditions	mass density, [1] [kg/m3]	refractive index, [2]	speed of sound, [1] [m/s]	viscosity, [1] [mPa·s]
298.15 K, x2 = 0	857.89 ± 0.42	1.4876 ± 0.0004	1313.8 ± 1	0.912 ± 0.021
298.15 K, x2 = 0.0702	846.08 ± 1.6	1.4801 ± 0.0011	1312 ± 1	1.004 ± 0.028
298.15 K, x2 = 0.1382	836.12 ± 1.4	1.4738 ± 0.0009	1311.4 ± 1	1.112 ± 0.033
298.15 K, x2 = 0.2541	821.7 ± 1.3	1.4647 ± 0.0009	1312.4 ± 1	1.33 ± 0.037
298.15 K, x2 = 0.3113	815.5 ± 1.1	1.4608 ± 0.0008	1313.7 ± 1	1.449 ± 0.04
298.15 K, x2 = 0.4028	806.76 ± 1	1.4553 ± 0.0007	1316.1 ± 1	1.644 ± 0.044
298.15 K, x2 = 0.4757	800.6 ± 0.92	1.4515 ± 0.0007	1318.4 ± 1	1.793 ± 0.046
298.15 K, x2 = 0.5349	796.04 ± 0.84	1.4486 ± 0.0006	1320.7 ± 1	1.924 ± 0.049
298.15 K, x2 = 0.6167	790.37 ± 0.77	1.4451 ± 0.0006	1323.2 ± 1	2.101 ± 0.053
298.15 K, x2 = 0.7476	782.25 ± 0.73	1.4401 ± 0.0006	1328.3 ± 1	2.387 ± 0.058
298.15 K, x2 = 0.832	777.71 ± 0.65	1.4373 ± 0.0005	1331.6 ± 1	2.587 ± 0.062
308.15 K, x2 = 0	849.78 ± 0.42	1.4827 ± 0.0004	1274.5 ± 1	0.796 ± 0.021
308.15 K, x2 = 0.0702	838.16 ± 1.6	1.4753 ± 0.0011	1273.2 ± 1	0.874 ± 0.027
308.15 K, x2 = 0.1382	828.35 ± 1.4	1.469 ± 0.0009	1273.1 ± 1	0.954 ± 0.03
308.15 K, x2 = 0.2541	814.15 ± 1.3	1.46 ± 0.0009	1274.7 ± 1	1.128 ± 0.035
308.15 K, x2 = 0.3113	808.04 ± 1.1	1.4562 ± 0.0007	1276.1 ± 1	1.223 ± 0.037
308.15 K, x2 = 0.4028	799.42 ± 0.99	1.4508 ± 0.0007	1278.8 ± 1	1.375 ± 0.041
308.15 K, x2 = 0.4757	793.34 ± 0.91	1.447 ± 0.0007	1281.2 ± 1	1.493 ± 0.044
308.15 K, x2 = 0.5349	788.84 ± 0.83	1.4441 ± 0.0006	1283.5 ± 1	1.592 ± 0.046
308.15 K, x2 = 0.6167	783.24 ± 0.76	1.4407 ± 0.0006	1286.2 ± 1	1.734 ± 0.05
308.15 K, x2 = 0.7476	775.3 ± 0.72	1.4358 ± 0.0006	1291.7 ± 1	1.95 ± 0.055
308.15 K, x2 = 0.832	770.73 ± 0.64	1.433 ± 0.0005	1294.6 ± 1	2.099 ± 0.059
318.15 K, x2 = 0	841.64 ± 0.42	1.4778 ± 0.0004	1235.7 ± 1	0.707 ± 0.021
318.15 K, x2 = 0.0702	830.21 ± 1.6	1.4704 ± 0.0011	1235 ± 1	0.771 ± 0.026
318.15 K, x2 = 0.1382	820.55 ± 1.3	1.4642 ± 0.0009	1235.3 ± 1	0.838 ± 0.029
318.15 K, x2 = 0.2541	806.57 ± 1.2	1.4553 ± 0.0008	1237.4 ± 1	0.975 ± 0.033
318.15 K, x2 = 0.3113	800.55 ± 1.1	1.4516 ± 0.0007	1239 ± 1	1.05 ± 0.036
318.15 K, x2 = 0.4028	792.05 ± 0.98	1.4462 ± 0.0007	1241.9 ± 1	1.174 ± 0.04
318.15 K, x2 = 0.4757	786.06 ± 0.89	1.4425 ± 0.0006	1244.5 ± 1	1.275 ± 0.043
318.15 K, x2 = 0.5349	781.7 ± 0.82	1.4398 ± 0.0006	1246.8 ± 1	1.356 ± 0.044
318.15 K, x2 = 0.6167	776.09 ± 0.76	1.4364 ± 0.0006	1249.7 ± 1	1.468 ± 0.048
318.15 K, x2 = 0.7476	768.18 ± 0.71	1.4315 ± 0.0006	1254.5 ± 1	1.642 ± 0.053
318.15 K, x2 = 0.832	763.74 ± 0.64	1.4288 ± 0.0005	1258.2 ± 1	1.762 ± 0.057

CCCc1ccccc1 [propylbenzene] + CCCCCCCCCCCCCCCC
Conditions	mass density, [1] [kg/m3]	refractive index, [2]	speed of sound, [1] [m/s]	viscosity, [1] [mPa·s]
298.15 K, x2 = 0	858.45 ± 0.22	1.4896 ± 0.0004	1320.6 ± 0.6	0.792 ± 0.021
298.15 K, x2 = 0.0627	846.52 ± 1.8	1.4817 ± 0.0013	1317.3 ± 0.8	0.872 ± 0.027
298.15 K, x2 = 0.1009	840.12 ± 1.5	1.4775 ± 0.001	1315.7 ± 0.7	0.928 ± 0.029
298.15 K, x2 = 0.207	825.01 ± 1.3	1.4677 ± 0.0009	1314.8 ± 0.7	1.092 ± 0.033
298.15 K, x2 = 0.3093	813.2 ± 1.1	1.4602 ± 0.0008	1315.7 ± 0.8	1.269 ± 0.038
298.15 K, x2 = 0.3863	805.79 ± 0.92	1.4554 ± 0.0007	1317.7 ± 0.8	1.408 ± 0.042
298.15 K, x2 = 0.5055	796.08 ± 0.85	1.4492 ± 0.0007	1320.9 ± 0.8	1.654 ± 0.047
298.15 K, x2 = 0.5603	792.22 ± 0.72	1.4467 ± 0.0006	1322.7 ± 0.9	1.776 ± 0.05
298.15 K, x2 = 0.7042	783.32 ± 0.69	1.441 ± 0.0006	1327.7 ± 0.9	2.114 ± 0.056
298.15 K, x2 = 0.7728	779.76 ± 0.62	1.4387 ± 0.0005	1330 ± 1	2.291 ± 0.061
298.15 K, x2 = 0.8468	776.25 ± 0.58	1.4365 ± 0.0005	1332.8 ± 1	2.505 ± 0.065
308.15 K, x2 = 0	850.01 ± 0.22	1.4844 ± 0.0004	1280.6 ± 0.6	0.699 ± 0.021
308.15 K, x2 = 0.0627	838.3 ± 1.8	1.4766 ± 0.0013	1277.8 ± 0.8	0.766 ± 0.026
308.15 K, x2 = 0.1009	832.03 ± 1.5	1.4724 ± 0.001	1276.8 ± 0.7	0.813 ± 0.028
308.15 K, x2 = 0.207	817.19 ± 1.3	1.4628 ± 0.0009	1276.4 ± 0.7	0.949 ± 0.032
308.15 K, x2 = 0.3093	805.67 ± 1.1	1.4554 ± 0.0008	1277.9 ± 0.8	1.09 ± 0.036
308.15 K, x2 = 0.3863	798.39 ± 0.9	1.4509 ± 0.0007	1279.9 ± 0.8	1.203 ± 0.039
308.15 K, x2 = 0.5055	788.78 ± 0.85	1.4448 ± 0.0007	1283.6 ± 0.9	1.396 ± 0.045
308.15 K, x2 = 0.5603	784.97 ± 0.7	1.4424 ± 0.0006	1285.4 ± 0.9	1.495 ± 0.047
308.15 K, x2 = 0.7042	776.34 ± 0.69	1.4368 ± 0.0006	1290.5 ± 0.9	1.761 ± 0.053
308.15 K, x2 = 0.7728	772.78 ± 0.62	1.4346 ± 0.0005	1292.9 ± 1	1.886 ± 0.057
308.15 K, x2 = 0.8468	769.24 ± 0.58	1.4323 ± 0.0005	1295.7 ± 1	2.05 ± 0.06
318.15 K, x2 = 0	841.53 ± 0.22	1.4792 ± 0.0004	1241 ± 0.6	0.626 ± 0.021
318.15 K, x2 = 0.0627	830.05 ± 1.8	1.4713 ± 0.0013	1238.8 ± 0.7	0.683 ± 0.025
318.15 K, x2 = 0.1009	823.89 ± 1.4	1.4673 ± 0.001	1238.2 ± 0.7	0.722 ± 0.027
318.15 K, x2 = 0.207	809.33 ± 1.3	1.4578 ± 0.0009	1238.5 ± 0.7	0.835 ± 0.031
318.15 K, x2 = 0.3093	798.09 ± 1.1	1.4506 ± 0.0008	1240.4 ± 0.8	0.952 ± 0.035
318.15 K, x2 = 0.3863	790.87 ± 0.9	1.4461 ± 0.0007	1242.7 ± 0.8	1.044 ± 0.038
318.15 K, x2 = 0.5055	781.4 ± 0.83	1.4402 ± 0.0006	1246.6 ± 0.9	1.2 ± 0.043
318.15 K, x2 = 0.5603	777.68 ± 0.7	1.4378 ± 0.0006	1248.6 ± 0.9	1.28 ± 0.045
318.15 K, x2 = 0.7042	769.05 ± 0.68	1.4324 ± 0.0006	1253.6 ± 0.9	1.485 ± 0.051
318.15 K, x2 = 0.7728	765.61 ± 0.61	1.4302 ± 0.0005	1256.2 ± 1	1.585 ± 0.055
318.15 K, x2 = 0.8468	762.23 ± 0.58	1.428 ± 0.0005	1258.9 ± 1	1.713 ± 0.058
